Some test systems named below: SK-MEL-28 melanoma; RXF 393 renal; PC-3 prostate; 786-0 renal; SN12C renal; UO-31 renal; NCI-H460 lung; HOP-62 NSCLC; U251 CNS; SK-OV-3 ovarian.
What all share (experiment): NCI tumour cell line growth inhibition, 48 h

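A five-concentration, 48-hour dose response in 96-well plates underlies each endpoint, interpolated linearly between surrounding concentrations. Abbreviation: GI50, concentration required for 50% inhibition of growth. TGI denotes the concentration required for complete inhibition of growth.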

With `CCN(CC)CCCNc1nc2ccccc2c2c(=O)c3cc(Cl)ccc3sc12`, the GI50 in the experiment on SK-MEL-28 melanoma is 1.81 µM; with RXF 393 renal, 2.68 µM; in the experiment with PC-3 prostate it was 3.41 µM; with 786-0 renal, 1.69 µM; in the experiment on SN12C renal, 3.68 µM; in the experiment on UO-31 renal it was 1.79 µM. The GI50 is 1.7 µM in the experiment on NCI-H460 lung, 3.05 µM in the experiment with HOP-62 NSCLC and 2.04 µM in the experiment with U251 CNS. In addition, the TGI in the experiment with SK-MEL-28 melanoma was 3.34 µM; with RXF 393 renal, 10.8 µM; in the experiment on PC-3 prostate, 16.7 µM; in the experiment on 786-0 renal, 3.27 µM; with SN12C renal, 15.4 µM; in the experiment with UO-31 renal, 9.97 µM. Further, the TGI in the experiment with NCI-H460 lung was determined as 3.36 µM; in the experiment on HOP-62 NSCLC, 15.8 µM; in the experiment on U251 CNS, 4.92 µM.

As for `CCCC(=O)Nc1cc([N+](=O)[O-])c([N+](=O)[O-])cc1OC`, the TGI was 32.2 µM in the experiment on SK-MEL-28 melanoma; greater than 100 µM with PC-3 prostate; greater than 100 µM in the experiment on 786-0 renal; 26.8 µM with SK-OV-3 ovarian; 29.5 µM in the experiment with SN12C renal; 3.13 µM with UO-31 renal. Also, the TGI was found to be 35.4 µM in the experiment on NCI-H460 lung, 28.1 µM in the experiment on HOP-62 NSCLC and 29.8 µM in the experiment on U251 CNS.

In the case of `COc1ccc(Cn2cnc3cc(C(=O)Nc4cccc5ccccc45)ccc32)c(OC)c1`, the GI50 is 1.63 µM with SK-MEL-28 melanoma; 0.0355 µM in the experiment on RXF 393 renal; 0.051 µM in the experiment with PC-3 prostate; 0.045 µM in the experiment on 786-0 renal; 0.106 µM in the experiment on SK-OV-3 ovarian; 0.0691 µM in the experiment with SN12C renal. Besides, the GI50 with UO-31 renal was 0.0759 µM; in the experiment on NCI-H460 lung, 0.0363 µM; in the experiment on U251 CNS it was 0.0398 µM. In addition, the TGI in the experiment with SK-MEL-28 melanoma, in the experiment on RXF 393 renal, in the experiment on PC-3 prostate, in the experiment with 786-0 renal, with SK-OV-3 ovarian and in the experiment on SN12C renal was greater than 100 µM in each case. The TGI in the experiment on UO-31 renal was greater than 100 µM; in the experiment with NCI-H460 lung, 1.21 µM; with U251 CNS it was greater than 100 µM.

As to `COC(=O)c1oc2c(O)c(OC)c(Br)cc2c1C`, the GI50 is 28.6 µM in the experiment on RXF 393 renal; 21.2 µM in the experiment with PC-3 prostate; 18.2 µM with 786-0 renal; 46.9 µM in the experiment with UO-31 renal; 64 µM with NCI-H460 lung; 23.3 µM in the experiment on HOP-62 NSCLC. The GI50 in the experiment on U251 CNS is 18.2 µM. Besides, the TGI with RXF 393 renal is 67.1 µM; in the experiment with PC-3 prostate it was 39.7 µM; in the experiment on 786-0 renal, 32.4 µM; with UO-31 renal, greater than 100 µM; with NCI-H460 lung, greater than 100 µM; with HOP-62 NSCLC it was 51.4 µM. Also, the TGI in the experiment with U251 CNS came to 33.1 µM.

In the case of `CN(C)c1ccc(/C=C/c2ccnc3ccccc23)cc1N`, the TGI in the experiment on SK-MEL-28 melanoma is 26.3 µM; with PC-3 prostate, 22 µM; in the experiment with 786-0 renal, 53.5 µM; in the experiment on SK-OV-3 ovarian it was 31.7 µM; in the experiment on SN12C renal, 34.4 µM; in the experiment on UO-31 renal, 20.2 µM. The TGI was 22.3 µM with NCI-H460 lung, 28.4 µM in the experiment with HOP-62 NSCLC and 40.8 µM with U251 CNS.

As for `CC(=O)c1c(O)ccc2c(C)c(C(=O)O)oc12`, the GI50 with SK-MEL-28 melanoma, in the experiment on RXF 393 renal, in the experiment on PC-3 prostate, in the experiment with 786-0 renal, in the experiment on UO-31 renal and in the experiment with NCI-H460 lung was greater than 100 µM each time. The GI50 in the experiment on HOP-62 NSCLC and in the experiment on U251 CNS was greater than 100 µM in each case. The TGI with SK-MEL-28 melanoma, in the experiment with RXF 393 renal, with PC-3 prostate, in the experiment on 786-0 renal, with UO-31 renal and with NCI-H460 lung was greater than 100 µM each time. The TGI in the experiment with HOP-62 NSCLC and in the experiment on U251 CNS was greater than 100 µM throughout.

With `CCCCCCCCCCCCSC(=NC)NC`, the GI50 in the experiment on SK-MEL-28 melanoma was 1.72 µM; with RXF 393 renal, 1.89 µM; in the experiment with PC-3 prostate, 1.9 µM; in the experiment with 786-0 renal, 1.88 µM; with SK-OV-3 ovarian, 4.26 µM; in the experiment with SN12C renal, 2.67 µM. The GI50 with UO-31 renal is 2.11 µM; with NCI-H460 lung, 1.84 µM; in the experiment on HOP-62 NSCLC, 1.94 µM. Also, the TGI with SK-MEL-28 melanoma turned out to be 3.22 µM; with RXF 393 renal it was 4.15 µM; with PC-3 prostate, 4.94 µM; in the experiment with 786-0 renal, 3.51 µM; with SK-OV-3 ovarian, 19 µM; in the experiment with SN12C renal, 7.69 µM. For the same molecule, the TGI in the experiment on UO-31 renal turned out to be 5.64 µM; in the experiment with NCI-H460 lung it was 3.52 µM; in the experiment with HOP-62 NSCLC, 4.59 µM.

Turning to `O=C1Nc2ccccc2/C1=C/c1cn(C(=O)c2c(Cl)cccc2Cl)c2ccccc12`, the GI50 with RXF 393 renal is 4.14 µM; with PC-3 prostate, 2.39 µM; in the experiment on 786-0 renal, 3.28 µM; in the experiment with SK-OV-3 ovarian, 8.35 µM; in the experiment with SN12C renal, 4 µM; in the experiment on UO-31 renal, 1.14 µM. For the same molecule, the values for the GI50 with NCI-H460 lung, with HOP-62 NSCLC and in the experiment on U251 CNS were 2 µM, 12.8 µM and 3.47 µM, respectively. For the same molecule, the TGI with RXF 393 renal worked out at 16.6 µM; in the experiment with PC-3 prostate it was 11.2 µM; in the experiment with 786-0 renal it was 12.7 µM; with SK-OV-3 ovarian, 56.5 µM; in the experiment with SN12C renal, 19.3 µM; with UO-31 renal, 7.5 µM. The TGI in the experiment with NCI-H460 lung is 3.97 µM; in the experiment with HOP-62 NSCLC, 40.4 µM; in the experiment with U251 CNS, 15.5 µM.

Consider `COc1ccc(/C(=N\O)c2cc(OC)c(OC)c(OC)c2)c(OC)c1N`, for which the GI50 in the experiment with RXF 393 renal was 2.79 µM; in the experiment on PC-3 prostate, 4 µM; in the experiment on 786-0 renal, 6.77 µM; in the experiment on SK-OV-3 ovarian, 3.82 µM; in the experiment on SN12C renal, 7.9 µM; with UO-31 renal it was 8.14 µM. The results for the GI50 with NCI-H460 lung, in the experiment with HOP-62 NSCLC and with U251 CNS were 3.59 µM, 4.26 µM and 5.17 µM, respectively. Moreover, the TGI with RXF 393 renal, in the experiment on PC-3 prostate, in the experiment on 786-0 renal, in the experiment on SK-OV-3 ovarian, in the experiment on SN12C renal and in the experiment with UO-31 renal was greater than 100 µM in each case. In addition, the TGI in the experiment with NCI-H460 lung, with HOP-62 NSCLC and in the experiment on U251 CNS was greater than 100 µM in each case.

Turning to `COC(=O)c1cc2c3ccccc3n3c(=O)c4cc5cc(OC)c(N(S(=O)(=O)c6ccc(C)cc6)S(=O)(=O)c6ccc(C)cc6)cc5nc4c(n1)c23`, the GI50 with SK-MEL-28 melanoma was greater than 100 µM; with RXF 393 renal, 7.56 µM; in the experiment with PC-3 prostate, greater than 100 µM; in the experiment on 786-0 renal, 3.23 µM; in the experiment with SK-OV-3 ovarian it was 4.53 µM; in the experiment with SN12C renal it was 95.7 µM. Further, the GI50 with NCI-H460 lung is greater than 100 µM; in the experiment on U251 CNS, 2.62 µM. Also, the TGI in the experiment on SK-MEL-28 melanoma was greater than 100 µM; with RXF 393 renal, 26.1 µM; in the experiment with PC-3 prostate it was greater than 100 µM; with 786-0 renal it was 14.5 µM; with SK-OV-3 ovarian it was 81.3 µM; in the experiment with SN12C renal, greater than 100 µM. In addition, the TGI in the experiment with NCI-H460 lung was greater than 100 µM; in the experiment on U251 CNS it was 13.4 µM.

For the origin of these results see PubChem BioAssay (NCI).
